Measurements published in US6218157A, “Haloacetoacetate reductase, method for producing said enzyme, and method for producing alcohols using said enzyme” (priority 1997, dated 2001).
Read-outs that look alike come from different tables or passages of the source.

Key:
Type in all cases: biochemical
[1] = biological target: T1, ethyl 4-chloroacetoacetate reductase (Kluyveromyces lactis, UniProt Q6CT25); experiment: Effects of various inhibitors on the ethyl 4-chloroacetoacetate-reducing activity
T1 construct: almost single band, about 190 kDa on SDS-PAGE
T1 sequence (Q6CT25 1-1893): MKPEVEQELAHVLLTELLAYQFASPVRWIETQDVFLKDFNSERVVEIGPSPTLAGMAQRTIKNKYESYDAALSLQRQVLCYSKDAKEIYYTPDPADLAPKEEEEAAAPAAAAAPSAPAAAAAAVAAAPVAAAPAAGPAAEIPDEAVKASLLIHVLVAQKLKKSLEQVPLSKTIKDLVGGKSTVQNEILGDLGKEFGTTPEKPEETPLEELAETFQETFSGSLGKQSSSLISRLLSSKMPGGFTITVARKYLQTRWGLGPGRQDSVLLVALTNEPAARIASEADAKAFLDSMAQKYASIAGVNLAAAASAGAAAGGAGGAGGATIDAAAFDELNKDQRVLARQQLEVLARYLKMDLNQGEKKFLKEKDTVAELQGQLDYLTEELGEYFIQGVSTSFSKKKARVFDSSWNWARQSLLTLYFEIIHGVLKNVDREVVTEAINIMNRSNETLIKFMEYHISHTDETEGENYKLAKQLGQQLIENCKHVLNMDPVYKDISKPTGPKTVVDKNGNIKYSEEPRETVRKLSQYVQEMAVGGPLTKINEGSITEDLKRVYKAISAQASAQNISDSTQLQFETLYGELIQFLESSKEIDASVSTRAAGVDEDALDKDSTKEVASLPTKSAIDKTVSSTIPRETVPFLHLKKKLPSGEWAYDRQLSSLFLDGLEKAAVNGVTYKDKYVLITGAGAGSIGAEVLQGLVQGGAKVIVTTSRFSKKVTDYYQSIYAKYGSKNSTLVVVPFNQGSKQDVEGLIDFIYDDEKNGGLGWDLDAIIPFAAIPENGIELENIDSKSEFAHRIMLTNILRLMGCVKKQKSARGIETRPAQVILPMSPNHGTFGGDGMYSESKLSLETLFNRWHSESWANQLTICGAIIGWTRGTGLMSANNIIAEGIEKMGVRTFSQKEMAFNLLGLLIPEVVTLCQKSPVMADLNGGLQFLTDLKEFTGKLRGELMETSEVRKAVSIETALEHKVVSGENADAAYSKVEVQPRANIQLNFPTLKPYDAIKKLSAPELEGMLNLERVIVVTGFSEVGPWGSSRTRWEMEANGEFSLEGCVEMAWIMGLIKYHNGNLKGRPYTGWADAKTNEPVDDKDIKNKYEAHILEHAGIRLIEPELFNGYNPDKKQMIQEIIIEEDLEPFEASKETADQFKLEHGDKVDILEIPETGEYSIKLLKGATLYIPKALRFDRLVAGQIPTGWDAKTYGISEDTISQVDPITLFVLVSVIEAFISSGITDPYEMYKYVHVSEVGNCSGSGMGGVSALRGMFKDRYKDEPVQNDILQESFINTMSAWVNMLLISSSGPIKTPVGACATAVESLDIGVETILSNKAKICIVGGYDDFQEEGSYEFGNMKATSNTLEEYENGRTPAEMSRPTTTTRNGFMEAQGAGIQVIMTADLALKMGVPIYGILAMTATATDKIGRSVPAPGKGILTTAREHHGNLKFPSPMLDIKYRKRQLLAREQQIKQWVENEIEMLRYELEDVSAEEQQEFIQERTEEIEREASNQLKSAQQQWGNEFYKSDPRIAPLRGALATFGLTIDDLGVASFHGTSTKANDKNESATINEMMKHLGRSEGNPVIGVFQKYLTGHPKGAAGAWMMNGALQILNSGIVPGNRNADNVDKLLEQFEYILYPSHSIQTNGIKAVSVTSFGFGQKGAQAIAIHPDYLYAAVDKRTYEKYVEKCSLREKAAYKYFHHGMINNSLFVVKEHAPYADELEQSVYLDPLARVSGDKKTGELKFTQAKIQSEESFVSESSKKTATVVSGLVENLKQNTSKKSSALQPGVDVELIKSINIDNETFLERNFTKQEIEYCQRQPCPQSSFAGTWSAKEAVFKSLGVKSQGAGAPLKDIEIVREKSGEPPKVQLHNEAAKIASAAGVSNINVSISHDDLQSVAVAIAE
T1 sequence (Q6CWN6 1-2047 partner): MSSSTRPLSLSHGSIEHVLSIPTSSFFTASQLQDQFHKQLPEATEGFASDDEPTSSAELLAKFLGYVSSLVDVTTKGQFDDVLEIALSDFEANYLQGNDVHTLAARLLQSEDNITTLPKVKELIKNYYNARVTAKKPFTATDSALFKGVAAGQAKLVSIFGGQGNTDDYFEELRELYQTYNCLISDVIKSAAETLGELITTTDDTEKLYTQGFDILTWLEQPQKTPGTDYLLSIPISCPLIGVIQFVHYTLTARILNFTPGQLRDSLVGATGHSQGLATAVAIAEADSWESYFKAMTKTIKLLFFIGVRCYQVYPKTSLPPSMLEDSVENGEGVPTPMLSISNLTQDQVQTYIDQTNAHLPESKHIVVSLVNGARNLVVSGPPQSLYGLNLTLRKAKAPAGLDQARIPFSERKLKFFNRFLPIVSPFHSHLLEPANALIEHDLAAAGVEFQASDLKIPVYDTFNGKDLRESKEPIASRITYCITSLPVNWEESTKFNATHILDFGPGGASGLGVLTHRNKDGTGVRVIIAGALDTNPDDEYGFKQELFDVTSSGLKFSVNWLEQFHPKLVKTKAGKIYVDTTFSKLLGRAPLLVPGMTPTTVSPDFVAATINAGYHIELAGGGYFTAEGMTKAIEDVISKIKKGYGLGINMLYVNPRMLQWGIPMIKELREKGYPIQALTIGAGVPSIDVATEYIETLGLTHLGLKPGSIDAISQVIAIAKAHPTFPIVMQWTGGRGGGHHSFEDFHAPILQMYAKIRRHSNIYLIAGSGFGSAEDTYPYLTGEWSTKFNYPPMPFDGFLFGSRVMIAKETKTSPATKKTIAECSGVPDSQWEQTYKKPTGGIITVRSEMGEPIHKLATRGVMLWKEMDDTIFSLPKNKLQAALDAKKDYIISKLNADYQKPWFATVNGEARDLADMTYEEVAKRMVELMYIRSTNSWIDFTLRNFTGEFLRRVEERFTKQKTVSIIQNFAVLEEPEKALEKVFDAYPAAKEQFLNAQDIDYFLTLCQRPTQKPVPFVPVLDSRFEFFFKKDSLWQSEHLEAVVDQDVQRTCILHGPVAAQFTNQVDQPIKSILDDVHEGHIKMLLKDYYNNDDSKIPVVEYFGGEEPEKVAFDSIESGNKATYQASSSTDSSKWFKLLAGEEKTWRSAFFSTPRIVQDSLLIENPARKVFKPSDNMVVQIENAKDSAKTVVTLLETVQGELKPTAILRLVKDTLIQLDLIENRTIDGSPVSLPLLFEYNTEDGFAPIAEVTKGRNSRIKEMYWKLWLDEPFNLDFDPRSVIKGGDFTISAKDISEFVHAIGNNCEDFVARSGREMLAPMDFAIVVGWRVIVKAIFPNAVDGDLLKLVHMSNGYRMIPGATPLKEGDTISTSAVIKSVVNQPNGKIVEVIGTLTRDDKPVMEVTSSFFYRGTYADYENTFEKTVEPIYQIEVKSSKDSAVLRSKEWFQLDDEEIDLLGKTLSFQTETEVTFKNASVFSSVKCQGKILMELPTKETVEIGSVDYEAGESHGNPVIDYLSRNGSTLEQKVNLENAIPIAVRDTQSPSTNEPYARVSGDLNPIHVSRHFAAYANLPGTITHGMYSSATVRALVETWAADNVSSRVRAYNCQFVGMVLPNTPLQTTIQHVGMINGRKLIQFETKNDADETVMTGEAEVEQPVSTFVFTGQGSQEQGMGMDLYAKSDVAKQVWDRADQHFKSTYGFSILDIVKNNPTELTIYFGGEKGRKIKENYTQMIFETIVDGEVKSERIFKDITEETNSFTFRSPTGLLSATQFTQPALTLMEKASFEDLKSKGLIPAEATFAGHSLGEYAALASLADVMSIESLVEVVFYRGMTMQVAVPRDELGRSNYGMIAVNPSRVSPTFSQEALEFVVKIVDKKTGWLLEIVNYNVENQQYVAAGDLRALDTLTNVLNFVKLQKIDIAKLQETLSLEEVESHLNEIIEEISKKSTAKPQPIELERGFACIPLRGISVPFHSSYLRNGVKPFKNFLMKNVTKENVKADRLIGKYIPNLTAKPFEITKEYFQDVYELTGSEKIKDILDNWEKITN
Procedure: (§1) In these examples, the 4-haloacetoacetic acid ester-reducing activity of the enzyme of this invention was determined by allowing it to react in a reaction system containing 50 mM potassium phosphate buffer (pH 6.5), 0.2 mM NADPH, 20 mM ethyl 4-chloroacetoacetate, and the enzyme at 30° C. and measuring the decrease in the absorbance at 340 nm in proportion to the decrease of NADPH. One unit of the enzyme was defined as the amount of the enzyme to catalyze a decrease of 1 μmol of NADPH per min. Protein was quantitated by the pigment binding method using a protein assay kit manufactured by BioRad.
After the enzyme obtained in Example 1 was treated with various reagents at 30° C. for 10 min, it was assayed for the remaining activity to reduce ethyl 4chloroacetoacetate.

[2] = biological target: T1, ethyl 4-chloroacetoacetate reductase; experiment: Substrate specificity: reducing activity of the enzyme on various ketones and aldehydes; conditions: for Relative activity: coenzyme NADPH, ethyl 4-chloroacetoacetate-reducing activity = 100%; for Reducing activity on substrate (in words): NADPH as electron donor
Procedure: as §1

[3] = biological target: T1, ethyl 4-chloroacetoacetate reductase; experiment: as above; conditions: substrate 20 mM, coenzyme NAD; ethyl 4-chloroacetoacetate-reducing activity = 100%
[4] = inhibitor 1 mM, 30° C., 10 min, standard conditions = 100%, read-out: Residual activity
[5] = inhibitor 1 mM, 30° C., 10 min, standard conditions = 100%

O=C(O)c1cc[c]([Hg][Cl])cc1 [p-Chloromercuribenzoic acid]
Inhibition of the enzyme (in words) [1]: completely inhibited | Residual activity ([1]; inhibitor 0.05 mM, 30° C., 10 min, standard conditions = 100%): 0.0% | Inhibition of the enzyme (in words) ([1]; listed as p-chloromercuricbenzoic acid): significantly inhibited

O=C[C@H](O)[C@@H](O)[C@H](O)CO [Xylose]
Relative activity ([2]; substrate 20 mM): 0%

O=Cc1ccccc1[N+](=O)[O-] [o-Nitrobenzaldehyde]
Relative activity ([2]; substrate 0.2 mM): 0%

O=Cc1ccc([N+](=O)[O-])cc1 [p-Nitrobenzaldehyde]
Relative activity ([2]; substrate 0.2 mM): 0%

CCOC(=O)C(=O)CCc1ccccc1
Relative activity ([2]; substrate 20 mM): 0%

C/C=C/C(=O)O [Chlotonic acid]
remaining activity at 50000 µM ([1]; inhibitor 50 mM, 30° C., 10 min, standard conditions = 100%, read-out: Residual activity): 87.7%

O=C(O)C(=O)CCc1ccccc1 [Benzylpyruvic acid]
Relative activity ([2]; substrate 1 mM): 0%

COC(=O)CC(C)=O [Methyl acetoacetate]
Relative activity ([2]; substrate 20 mM): 0%

CCN1C(=O)C=CC1=O [N-ethylmaleimide]
Inhibition of the enzyme (in words) [1]: inhibited | remaining activity at 1000 µM [1, 4]: 20.1%

CC(=O)COC(C)=O [Acetoxy-2-propanone]
Relative activity ([2]; substrate 20 mM): 0%

O=S(=O)([O-])[O-].[Zn+2] [Zinc sulfate]
Inhibition of the enzyme (in words) [1]: inhibited | Residual activity [1, 5]: 12.2%

CC(=O)C=O [Methylglyoxal]
Relative activity ([2]; substrate 20 mM): 1.8%

O=C1Nc2ccccc2C1=O [Isatine]
Relative activity ([2]; substrate 0.4 mM): 0%

c1cnc2c(c1)ccc1cccnc12 [o-Phenanthroline]
remaining activity at 1000 µM [1, 4]: 88.3%

O=S(=O)([O-])[O-].[Cu+2] [Copper sulfate]
Inhibition of the enzyme (in words) [1]: inhibited | Residual activity [1, 5]: 0.0% | Inhibition of the enzyme (in words) ([1]; listed as cupric sulfate): significantly inhibited

O=S(=O)(F)Cc1ccccc1 [Phenylmethanesulfonyl fluoride]
Residual activity [1, 5]: 89.4%

NC(=O)CI [Iodoacetamide]
remaining activity at 1000 µM [1, 4]: 53.9%

CCC1(CC)C(=O)NC(=O)NC1=O [Diethylbarbituric acid]
remaining activity at 1000 µM [1, 4]: 82.5%

COC(=O)CC(=O)CCl [Methyl 4-chloroacetoacetate]
Reducing activity on substrate (in words) [2]: high activity | Relative activity ([2]; substrate 20 mM): 66.3%

[Cl][Hg][Cl] [Mercuric chloride]
Inhibition of the enzyme (in words) [1]: significantly inhibited | Residual activity ([1]; inhibitor 0.01 mM, 30° C., 10 min, standard conditions = 100%): 0.0%

CC(=O)c1ccccc1 [Acetophenone]
Relative activity ([2]; substrate 20 mM): 0%

O=Cc1cccc([N+](=O)[O-])c1 [m-Nitrobenzaldehyde]
Relative activity ([2]; substrate 0.2 mM): 0.4%

O=C(O)CN(CCN(CC(=O)O)CC(=O)O)CC(=O)O [Ethylenediaminetetraacetic acid]
remaining activity at 1000 µM ([1]; read-out: Residual activity): 98.4%

C=CC(C)=O [Methyl vinyl ketone]
Inhibition of the enzyme (in words) [1]: inhibited | remaining activity at 10000 µM ([1]; inhibitor 10 mM, 30° C., 10 min, standard conditions = 100%, read-out: Residual activity): 26.3%

CCOC(=O)CC(=O)CCl [Ethyl 4-chloroacetoacetate]
Relative activity ([2]; substrate 20 mM): 100% | Relative activity ([2]; substrate 20 mM, listed as Ethyl 4-chloroacetoaetate): 0%

CCOC(=O)C[C@H](O)CCl
Relative activity [3]: 0%

O=c1c(O)c(-c2ccc(O)c(O)c2)oc2cc(O)cc(O)c12 [Quercetin]
remaining activity at 100 µM ([1]; inhibitor 0.1 mM, 30° C., 10 min, standard conditions = 100%, read-out: Residual activity): 68.1%

CCC=O [Propionaldehyde]
Relative activity ([2]; substrate 20 mM): 0%

CC(=O)CCO [4-Hydroxy-2-butanone]
Relative activity ([2]; substrate 20 mM): 0%

CC(=O)C(C)=O [2,3-Butanedione]
Relative activity ([2]; substrate 20 mM): 4.2%

O=CC(=O)c1ccccc1 [Phenylglyoxal]
Relative activity ([2]; substrate 0.5 mM): 0%

CC(=O)CC(C)=O [2,4-Pentanedione]
Relative activity ([2]; substrate 20 mM): 0%

CCC(=O)C(C)=O [2,3-Pentanedione]
Reducing activity on substrate (in words) [2]: high activity | Relative activity ([2]; substrate 20 mM): 44.2%

CCOC(=O)CC(C)=O [Ethyl acetoacetate]
Relative activity ([2]; substrate 20 mM): 0%

CCOC(=O)C[C@@H](O)CCl [Ethyl (R)-4-chloro-3-hydroxy-acetate]
Relative activity [3]: 0%

O=Cc1cccnc1 [Pyridine-3-aldehyde]
Relative activity ([2]; substrate 20 mM): 0%

O=C1CN2CCC1CC2 [3-Quinuclidinone]
Relative activity ([2]; substrate 20 mM): 0.8%
